Experimental data reported in patent US11773078B2, “Furin inhibitors” (Glaxosmithkline Intellectual Property Development Limited, priority 2018, dated 2023).

Legend:
[1] = target: T1, Furin (108-574-Tev-Flag-His) enzyme (Homo sapiens, UniProt P09958); experiment: Furin enzyme assay; format: biochemical
T1 construct: Furin (108-574-Tev-Flag-His) enzyme was expressed and purified from CHO cells; TEV cleavage site (C); FLAG (C); His (C); made in house; host or cells: CHO cells
How it was run: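 CHO-expressed, purified furin construct at 40 pM in 100 mM HEPES pH7.5, 1 mM CaCl2, 0.005% Triton X-100. Eleven-point 1:3 series, 0.00017–10 μM final, incubated 2 h at room temperature and read on Envision. pXC50 from four-parameter fit.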

[2] = target: T2, furin (endogenous protease) in U20S cells (Homo sapiens, UniProt P09958); experiment: Furin cell-based assay (image-based, Golgi-targeted GFP with BMP10 furin/PCSK cleavage site); settings: 24-hour incubation, read-out: furin golgi cell pXC50 (converted);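 further: Read-out is mean GFP fluorescence of Golgi puncta per cell by high-content imaging, retained when furin inhibited, over an eleven-point 0.00017–10 µM series, four-parameter fit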
T2 construct: the endogenous protease cleaves GFP; endogenous in cells; host or cells: U2OS cells transduced with a BacMam reporter
T2 sequence (P09958 108-794): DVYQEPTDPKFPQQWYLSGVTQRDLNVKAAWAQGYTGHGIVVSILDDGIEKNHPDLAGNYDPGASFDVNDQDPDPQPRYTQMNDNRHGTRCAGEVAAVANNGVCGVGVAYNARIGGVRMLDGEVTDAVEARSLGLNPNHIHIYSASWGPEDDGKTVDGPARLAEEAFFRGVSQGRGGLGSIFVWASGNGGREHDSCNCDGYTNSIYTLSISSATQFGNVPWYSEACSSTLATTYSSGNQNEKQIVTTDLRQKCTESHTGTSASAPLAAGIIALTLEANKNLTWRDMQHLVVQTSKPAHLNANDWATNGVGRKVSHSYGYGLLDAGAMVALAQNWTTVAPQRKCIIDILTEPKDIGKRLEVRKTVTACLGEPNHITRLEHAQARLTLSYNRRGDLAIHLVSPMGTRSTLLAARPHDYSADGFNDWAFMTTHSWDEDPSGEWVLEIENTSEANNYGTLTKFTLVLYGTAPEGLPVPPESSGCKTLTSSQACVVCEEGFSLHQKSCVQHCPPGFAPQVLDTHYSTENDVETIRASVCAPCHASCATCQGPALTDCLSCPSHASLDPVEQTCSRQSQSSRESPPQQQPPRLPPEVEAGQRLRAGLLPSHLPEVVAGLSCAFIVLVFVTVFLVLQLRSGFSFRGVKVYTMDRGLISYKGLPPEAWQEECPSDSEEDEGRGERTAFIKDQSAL
Procedure: This assay uses an image-based platform to evaluate the intracellular activity of compounds of the invention. Reactions were performed in black 384-well, tissue culture-treated, clear bottom plates (Greiner). Compounds under analysis were dissolved in DMSO (1.0 mM) and serially diluted 1 to 3 with DMSO through eleven dilutions. This creates a final compound concentration range from 0.00017 to 10 μM, and 0.1 μL of each concentration was transferred to the corresponding well of the assay plate. Assays were initiated by the addition of U20S cells simultaneously transduced with a BacMam-delivered construct containing a Golgi-targeting sequence followed by a 12-amino acid furin/PCSK cleavage site from Bone Morphogenic Protein 10 (BMP10) and then GFP at the C terminus. […] Briefly, frozen cells are thawed in assay media (Dulbecco's Modified Eagles Medium Nutritional Mixture F-12 (Ham) without phenol red containing 5% FBS) and diluted to deliver 6000 cells/well (50 μL) to the plate using a Multidrop Combi (Thermo).
After a 24-hour incubation period at 37° C., the cells are stained with Cell Mask Deep Red, fixed in paraformaldehyde and the nuclei stained using Ho33342. The Golgi-targeted GFP forms bright punctate clusters within the cell. In the absence of a furin inhibitor, the endogenous protease cleaves GFP from its N-acetylgalactosaminyltransferase-2 Golgi tether, releasing GFP into the Golgi lumen where fluorescence is diluted below the threshold of assay sensitivity. […] Cellular GFP intensity is determined by image-based acquisition (Incell 2200, Perkin Elmer) at 40× magnification with 4 fields measured per well. Multi-scale tophat segmentation is used to identify the GFP-tagged puncta and to quantitate the average fluorescence of all puncta on a per cell basis. Cellular toxicity is determined in parallel.
Data were analyzed using AbaseXE 7.3, utilizing a four-parameter curve fit equation. The following values were used to define limits and/or constraints for each of the four parameters: • Minimum—limit −10 to 10 • Maximum—90 to 110 • Slope—limit 0.5 to 2.0 • pXC50 confidence interval—10
Raw counts obtained from the respective plate reader (Perkin Elmer) were captured for data analysis. Curves were generated using the equation: Y=A+[(B−A)/(1+(10^C/x)^D)] • where: A=minimum response • B=maximum response • C=log 10*XC50 • D=slope factor • x=log 10 compound concentration [M]
The results were recorded as pXC50 values (−C in the above equation)

T1 sequence (P09958 108-574): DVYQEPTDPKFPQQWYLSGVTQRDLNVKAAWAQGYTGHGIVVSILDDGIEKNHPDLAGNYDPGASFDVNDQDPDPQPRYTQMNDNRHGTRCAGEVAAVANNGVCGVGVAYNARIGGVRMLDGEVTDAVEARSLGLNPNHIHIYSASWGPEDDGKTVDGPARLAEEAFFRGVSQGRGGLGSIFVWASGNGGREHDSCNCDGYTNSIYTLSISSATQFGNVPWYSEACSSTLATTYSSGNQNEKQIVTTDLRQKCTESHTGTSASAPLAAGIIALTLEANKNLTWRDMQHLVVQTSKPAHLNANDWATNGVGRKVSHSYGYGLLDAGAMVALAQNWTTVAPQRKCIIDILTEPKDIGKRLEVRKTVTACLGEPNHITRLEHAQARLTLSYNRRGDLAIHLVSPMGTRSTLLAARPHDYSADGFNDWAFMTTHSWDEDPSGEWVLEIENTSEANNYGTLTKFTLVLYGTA

| Structure (SMILES) | furin enzyme pIC50 [1] | EC50 [2] [nM] | IC50 ([1]; read-out: furin enzyme pIC50 (converted)) [nM] |
| --- | --- | --- | --- |
| CN(C)C1CCN(c2ncc(Oc3cc(CN4CCC(CC(=O)O)CC4)cc(-c4cc(Cl)cc(Cl)c4)n3)cn2)CC1 [Example 227, 2-(1-((2-(3,5-dichlorophenyl)-6-((2-(4-(dimethylamino)piperidin-1-yl)pyrimidin-5-yl)oxy)pyridin-4-yl)methyl)piperidin-4-yl)acetic acid] | 8.7 | 39.8 |  |
| CN1C2CC1CN(c1ncc(Oc3cc(CN4CCC(CC(=O)O)CC4)cc(-c4cc(Cl)cc(Cl)c4)n3)cn1)C2 [Example 228, 2-(1-((2-(3,5-dichlorophenyl)-6-((2-(6-methyl-3,6-diazabicyclo[3.1.1]heptan-3-yl)pyrimidin-5-yl)oxy)pyridin-4-yl)methyl)piperidin-4-yl)acetic acid] | 8.6 | 39.8 |  |
| O=C(O)CC1CCN(Cc2cc(Oc3cnc(N4CCN(CC5(O)CC5)CC4)nc3)nc(-c3cc(Cl)cc(Cl)c3)c2)CC1 [Example 229, 2-(1-((2-(3,5-dichlorophenyl)-6-((2-(4-((1-hydroxycyclopropyl)methyl)piperazin-1-yl)pyrimidin-5-yl)oxy)pyridin-4-yl)methyl)piperidin-4-yl)acetic acid] | 8.6 | 20 |  |
| CCN1CCCN(c2ncc(Oc3cc(CN4CCC(CC(=O)O)CC4)cc(-c4cc(Cl)cc(Cl)c4)n3)cn2)CC1 [Example 230, 2-(1-((2-(3,5-dichlorophenyl)-6-((2-(4-ethyl-1,4-diazepan-1-yl)pyrimidin-5-yl)oxy)pyridin-4-yl)methyl)piperidin-4-yl)acetic acid] | 8.6 | 10 |  |
| CN1C[C@@H]2C[C@H]1CN2c1ncc(Oc2cc(CN3CCC(CC(=O)O)CC3)cc(-c3cc(Cl)cc(Cl)c3)n2)cn1 [Example 231, 2-(1-((2-(3,5-dichlorophenyl)-6-((2-((1S,4S)-5-methyl-2,5-diazabicyclo[2.2.1]heptan-2-yl)pyrimidin-5-yl)oxy)pyridin-4-yl)methyl)piperidin-4-yl)acetic acid] | 8.5 | 10 |  |
| CCN1C[C@@H]2C[C@H]1CN2c1ncc(Oc2cc(CN3CCC(CC(=O)O)CC3)cc(-c3cc(Cl)cc(Cl)c3)n2)cn1 [Example 232, 2-(1-((2-(3,5-dichlorophenyl)-6-((2-((1S,4S)-5-ethyl-2,5-diazabicyclo[2.2.1]heptan-2-yl)pyrimidin-5-yl)oxy)pyridin-4-yl)methyl)piperidin-4-yl)acetic acid] | 8.9 | 50.1 |  |
| O=C(O)CC1CCN(Cc2cc(Oc3cnc(N4CCN(C5CC5)CC4)nc3)nc(-c3cc(Cl)cc(Cl)c3)c2)CC1 [Example 233, 2-(1-((2-((2-(4-cyclopropylpiperazin-1-yl)pyrimidin-5-yl)oxy)-6-(3,5-dichlorophenyl)pyridin-4-yl)methyl)piperidin-4-yl)acetic acid] | 8.2 | 100 |  |
| CCN1CCN(c2ncc(Oc3cc(CN4CCC(CC(=O)O)CC4)cc(-c4cc(Cl)cc(Cl)c4)n3)cn2)CC1 [Example 234, 2-(1-((2-(3,5-Dichlorophenyl)-6-((2-(4-ethylpiperazin-1-yl)pyrimidin-5-yl)oxy)pyridin-4-yl)methyl)piperidin-4-yl)acetic acid] | 10.7 | 10 |  |
| CC(C)N1CCN(c2ncc(Oc3cc(CN4CCC(CC(=O)O)CC4)cc(-c4cc(Cl)cc(Cl)c4)n3)cn2)CC1 [Example 235, 2-(1-((2-(3,5-Dichlorophenyl)-6-((2-(4-isopropylpiperazin-1-yl)pyrimidin-5-yl)oxy)pyridin-4-yl)methyl)piperidin-4-yl)acetic acid] | 9.2 | 15.8 |  |
| O=C(O)CC1CCN(Cc2cc(Oc3cnc(N4CCN(CCF)CC4)nc3)nc(-c3cc(Cl)cc(Cl)c3)c2)CC1 [Example 236, 2-(1-((2-(3,5-Dichlorophenyl)-6-((2-(4-(2-fluoroethyl)piperazin-1-yl)pyrimidin-5-yl)oxy)pyridin-4-yl)methyl)piperidin-4-yl)acetic acid] | 8.5 | 39.8 |  |
| CC(O)CCN1CCN(c2ncc(Oc3cc(CN4CCC(CC(=O)O)CC4)cc(-c4cc(Cl)cc(Cl)c4)n3)cn2)CC1 (stereo not shown) [Example 237, 2-(1-((2-(3,5-Dichlorophenyl)-6-((2-(4-(3-hydroxybutyl)piperazin-1-yl)pyrimidin-5-yl)oxy)pyridin-4-yl)methyl)piperidin-4-yl)acetic acid] | 8.7 | 3.16 |  |
| CC(CCO)N1CCN(c2ncc(Oc3cc(CN4CCC(CC(=O)O)CC4)cc(-c4cc(Cl)cc(Cl)c4)n3)cn2)CC1 (stereo not shown) [Example 238, 2-(1-((2-(3,5-Dichlorophenyl)-6-((2-(4-(4-hydroxybutan-2-yl)piperazin-1-yl)pyrimidin-5-yl)oxy)pyridin-4-yl)methyl)piperidin-4-yl)acetic acid] | 9.8 | 10 |  |
| CNCCC(C)N1CCN(c2ncc(Oc3cc(CN4CCC(CC(=O)O)CC4)cc(-c4cc(Cl)cc(Cl)c4)n3)cn2)CC1 (stereo not shown) [Example 239, 2-(1-((2-(3,5-Dichlorophenyl)-6-((2-(4-(4-(methylamino)butan-2-yl)piperazin-1-yl)pyrimidin-5-yl)oxy)pyridin-4-yl)methyl)piperidin-4-yl)acetic acid] | 8 | 25.1 |  |
| CC(CCN(C)C)N1CCN(c2ncc(Oc3cc(CN4CCC(CC(=O)O)CC4)cc(-c4cc(Cl)cc(Cl)c4)n3)cn2)CC1 (stereo not shown) [Example 240, 2-(1-((2-(3,5-Dichlorophenyl)-6-((2-(4-(4-(dimethylamino)butan-2-yl)piperazin-1-yl)pyrimidin-5-yl)oxy)pyridin-4-yl)methyl)piperidin-4-yl)acetic acid] | 8.4 | 6.31 |  |
| CNC(=O)OCCN1CCN(c2ncc(Oc3cc(CN4CCC(CC(=O)O)CC4)cc(-c4cc(Cl)cc(Cl)c4)n3)cn2)CC1 [Example 241, 2-(1-((2-(3,5-Dichlorophenyl)-6-((2-(4-(2-((methylcarbamoyl)oxy)ethyl)piperazin-1-yl)pyrimidin-5-yl)oxy)pyridin-4-yl)methyl)piperidin-4-yl)acetic acid] | 8.6 | 63.1 |  |
| CS(=O)(=O)CCCN1CCN(c2ccc(Oc3cc(CN4CCC(CC(=O)O)CC4)cc(-c4cc(Cl)cc(Cl)c4)n3)cn2)CC1 [Example 243, 2-(1-((2-(3,5-dichlorophenyl)-6-((6-(4-(3-(methylsulfonyl)propyl)piperazin-1-yl)pyridin-3-yl)oxy)pyridin-4-yl)methyl)piperidin-4-yl)acetic acid] | 8.7 | 25.1 |  |
| COCCN1CCN(c2ccc(Oc3cc(CN4CCC(CC(=O)O)CC4)cc(-c4cc(Cl)cc(Cl)c4)n3)cn2)CC1 [Example 244, 2-(1-((2-(3,5-dichlorophenyl)-6-((6-(4-(2-methoxyethyl)piperazin-1-yl)pyridin-3-yl)oxy)pyridin-4-yl)methyl)piperidin-4-yl)acetic acid] | 8.3 | 20 |  |
| COCCN1CCN(c2ncc(Oc3cc(CN4CCC(CNC(C)=O)CC4)cc(-c4cc(Cl)cc(Cl)c4)n3)cn2)CC1 [Example 245, N-((1-((2-(3,5-dichlorophenyl)-6-((2-(4-(2-methoxyethyl)piperazin-1-yl)pyrimidin-5-yl)oxy)pyridin-4-yl)methyl)piperidin-4-yl)methyl)acetamide] | 10 | 3.98 |  |
| NS(=O)(=O)CCCN1CCN(c2ncc(Oc3cc(CN4CCC(CC(=O)O)CC4)cc(-c4cc(Cl)cc(Cl)c4)n3)cn2)CC1 [Example 246, 2-(1-((2-(3,5-dichlorophenyl)-6-((2-(4-(3-sulfamoylpropyl)piperazin-1-yl)pyrimidin-5-yl)oxy)pyridin-4-yl)methyl)piperidin-4-yl)acetic acid] | 8.9 | 15.8 |  |
| COCCN1CCN(c2ncc(Oc3cc(CN4CCC(CC(=O)O)CC4)cc(-c4cc(Cl)cc(Cl)c4)n3)cn2)CC1 [Example 247, 2-(1-((2-(3,5-dichlorophenyl)-6-((2-(4-(2-methoxyethyl)piperazin-1-yl)pyrimidin-5-yl)oxy)pyridin-4-yl)methyl)piperidin-4-yl)acetic acid] | 8.5 | 31.6 |  |
| CNC(=O)OCC1CCN(Cc2cc(Oc3cnc(N4CCN(CCC(=O)O)CC4)nc3)nc(-c3cc(Cl)cc(Cl)c3)c2)CC1 [Example 248, 3-(4-(5-((6-(3,5-dichlorophenyl)-4-((4-(((methylcarbamoyl)oxy)methyl)piperidin-1-yl)methyl)pyridin-2-yl)oxy)pyrimidin-2-yl)piperazin-1-yl)propanoic acid] |  | 25.1 | 0.0316 |
| CC(=O)NCC1CCN(Cc2cc(Oc3ccc(N4CCN(CCCC(=O)O)CC4)nc3)nc(-c3cc(Cl)cc(Cl)c3)c2)CC1 [Example 249, 4-(4-(5-((4-((4-(acetamidomethyl)piperidin-1-yl)methyl)-6-(3,5-dichlorophenyl)pyridin-2-yl)oxy)pyridin-2-yl)piperazin-1-yl)butanoic acid] | 9.1 | 12.6 |  |
| COCCN1CCN(c2ccc(Oc3cc(CN4CCC(CNC(C)=O)CC4)cc(-c4cc(Cl)cc(Cl)c4)n3)cn2)CC1 [Example 250, N-((1-((2-(3,5-dichlorophenyl)-6-((6-(4-(2-methoxyethyl)piperazin-1-yl)pyridin-3-yl)oxy)pyridin-4-yl)methyl)piperidin-4-yl)methyl)acetamide] | 8.9 | < 0.794 |  |
